Test results reported in US7892350B2, “Sacrificial agents for fly ash concrete” (Boral Material Technologies Inc., priority 2003, dated 2011).
Where “and” joins values, the source holds several entries; their conditions need not be identical. Equal entries are not always repeated. Where two headings read alike, the source gives them in different places.

Legend:
[1] = Air entrainment in fresh concrete (ASTM C 231-97); details: for increase in air entrained above the control values: cement-only concrete without air entrainment agents, various dosages
Protocol: The sacrificial agents were added to the cementitious mixtures in several ways: • 1) mixing together with water and air entrainment agent solution • 2) premixed with the fly ash • 3) post-added into the fresh concrete which already contained the air entrainment agent.

[2] = Second sacrificial agent testing protocol: paste air measurements with DDBS (0.0125 wt %) and rating; details: for B1 + 0.0125% DDBS + 0.05% SA (air entrainment) / B1 + 0.0125% DDBS + 0.1% SA (air entrainment): B1 FA/cement paste; for PCA + 0.1% SA (level of air entrainment by the candidate sacrificial agent): Portland cement paste (PCA); for SA Rating (0-4): sacrificial agent overall rating index; as to Overall performance rating (second protocol rating): key: 0: Fail; 1: Poor; 2: Good; 3: Preferred; 4: Most preferred; as to SA Rating (0-4): key: 0: Fail; 1: Poor; 2: Good; 3: Preferred; 4: Most preferred
Procedure, shortened: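 Air entrainment was measured in cement pastes of fixed composition and fluidity. The candidate agent was tested alone at 0.1 wt % in a cement-only paste. It was also tested at 0.05 and 0.1 wt % in a fly ash (B1)-cement paste with DDBS, where air recovery was calculated against the same paste without agent.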

[3] = Air entrainment in mortars (ASTM C185-88); details: for decrease of variability (RSD values): fly ash mortars, Air 30 combined with the SA versus Air 30 alone
Protocol: Air entrainment were measured in mortars containing portland cement only (control), or a combination of portland cement and fly ash in the ratio 70:30;
The mix compositions are given in the Table below and the measurements were performed according to standard protocols described in ASTM C185-88

[4] = Hansch, C. et al. (1995), cited from earlier work
[5] = 30:70 fly ash B1 (LOI 5.01%):cement mortar, 0.002 wt % Air 30 alone or +0.05 wt % SA
[6] = 30:70 fly ash B1 (LOI 5.01%):cement mortar, 0.005 wt % Air 40 alone or +0.05 wt % SA
[7] = 30:70 fly ash C1 (LOI 0.70%):cement mortar, 0.002 wt % Air 30 alone or +0.05 wt % SA
[8] = 30:70 fly ash C1 (LOI 0.70%):cement mortar, 0.005 wt % Air 40 alone or +0.05 wt % SA
[9] = 30:70 fly ash C2 (LOI 3.04%):cement mortar, 0.002 wt % Air 30 alone or +0.05 wt % SA
[10] = 30:70 fly ash C2 (LOI 3.04%):cement mortar, 0.005 wt % Air 40 alone or +0.05 wt % SA
[11] = 30:70 fly ash C3 (LOI 2.54%):cement mortar, 0.002 wt % Air 30 alone or +0.05 wt % SA
[12] = 30:70 fly ash C3 (LOI 2.54%):cement mortar, 0.005 wt % Air 40 alone or +0.05 wt % SA
[13] = 30:70 fly ash D (LOI […]):cement mortar, 0.002 wt % Air 30 alone or +0.05 wt % SA
[14] = 30:70 fly ash D (LOI […]):cement mortar, 0.005 wt % Air 40 alone or +0.05 wt % SA
[15] = 30:70 fly ash H1 (LOI 8.45%):cement mortar, 0.002 wt % Air 30 alone or +0.05 wt % SA
[16] = 30:70 fly ash H1 (LOI 8.45%):cement mortar, 0.005 wt % Air 40 alone or +0.05 wt % SA
[17] = 30:70 fly ash M1 (LOI […]):cement mortar, 0.002 wt % Air 30 alone or +0.05 wt % SA
[18] = 30:70 fly ash M1 (LOI […]):cement mortar, 0.005 wt % Air 40 alone or +0.05 wt % SA
[19] = 30:70 fly ash M2 (LOI 8.78%):cement mortar, 0.002 wt % Air 30 alone or +0.05 wt % SA
[20] = 30:70 fly ash M2 (LOI 8.78%):cement mortar, 0.005 wt % Air 40 alone or +0.05 wt % SA
[21] = 30:70 fly ash M3 (LOI 3.15%):cement mortar, 0.002 wt % Air 30 alone or +0.05 wt % SA
[22] = 30:70 fly ash M3 (LOI 3.15%):cement mortar, 0.005 wt % Air 40 alone or +0.05 wt % SA
[23] = 30:70 fly ash R (LOI 0.17%):cement mortar, 0.002 wt % Air 30 alone or +0.05 wt % SA
[24] = 30:70 fly ash R (LOI 0.17%):cement mortar, 0.005 wt % Air 40 alone or +0.05 wt % SA
[25] = PCA cement mortar, no fly ash, 0.0017 wt % Air 30 alone or +0.05 wt % SA
[26] = PCA cement mortar, no fly ash, 0.004 wt % Air 40 alone or +0.05 wt % SA
[27] = over the fly ash mortars of Table 12, 0.002 wt % Air 30 alone or +0.05 wt % SA
[28] = over the fly ash mortars of Table 13, 0.005 wt % Air 40 alone or +0.05 wt % SA

Molecule: Sodium Di-isopropopyl naphthalene sulfonate [ND]
- Air ([1]; PCC cement concrete, no fly ash, no Air 40, ND alone 0.001 % CM): 2.3%
- Air ([1]; PCC cement concrete, no fly ash, no Air 40, ND alone 0.003 % CM): 4.1% and 3.1%
- Air ([1]; PCC cement concrete, no fly ash, no Air 40, ND alone 0.005 % CM): 4.6% and 4.8%
- Air ([1]; PCC cement concrete, no fly ash, no Air 40, ND alone 0.010 % CM): 4.6%
- Air ([1]; PCC cement concrete, no fly ash, no Air 40, ND alone 0.020 % CM): 3.9%
- Air ([1]; PCC cement concrete, no fly ash, no Air 40, ND alone 0.030 % CM): 3.8%
- Air ([1]; PCC cement concrete, no fly ash, no Air 40, ND alone 0.040 % CM): 3.9%
- increase in air entrained above the control values [1]: 2-3%

Molecule: O=S(=O)([O-])c1ccc2ccccc2c1.[Na+] [NS, Sodium 2-Naphthalene sulfonate]
- Overall performance rating (second protocol rating) [2]: 3
- B1 + 0.0125% DDBS + 0.05% SA (air entrainment) [2]: 4.4
- B1 + 0.0125% DDBS + 0.1% SA (air entrainment) [2]: 5.3
- PCA + 0.1% SA (level of air entrainment by the candidate sacrificial agent) [2]: 1.0
- SA Rating (0-4) [2]: 3
- Air entrainment [3, 5]: 4.0
- Air entrainment [3, 6]: 5.6
- Air entrainment [3, 7]: 4.3
- Air entrainment [3, 8]: 7.2
- Air entrainment [3, 9]: 5.9
- Air entrainment [3, 10]: 7.5
- Air entrainment [3, 11]: 4.8
- Air entrainment [3, 12]: 7.8
- Air entrainment [3, 13]: 11.4
- Air entrainment [3, 14]: 12.6
- Air entrainment [3, 15]: 2.7
- Air entrainment [3, 16]: 3.0
- Air entrainment [3, 17]: 5.8
- Air entrainment [3, 18]: 8.2
- Air entrainment [3, 19]: 2.8
- Air entrainment [3, 20]: 5.0
- Air entrainment [3, 21]: 6.9
- Air entrainment [3, 22]: 10.0
- Air entrainment [3, 23]: 12.0
- Air entrainment [3, 24]: 13.7
- Air entrainment [3, 25]: 13.4
- Air entrainment [3, 26]: 14.8
- decrease of variability (RSD values) [3]: approximately 50%
- Average of air entrained [3, 27]: 6.1%
- Average of air entrained [3, 28]: 8.0%

Molecule: OCCOc1ccccc1 [EGPE, Ethylene glycol phenyl ether]
- Experimental LogKow [4]: 1.16
- Experimental LogKow ([4]; listed as 2-Phenoxyethanol): Experimental LogKow: 1.16
- Overall performance rating (second protocol rating) [2]: 4
- B1 + 0.0125% DDBS + 0.05% SA (air entrainment) [2]: 6.9
- B1 + 0.0125% DDBS + 0.1% SA (air entrainment) [2]: 8.1
- PCA + 0.1% SA (level of air entrainment by the candidate sacrificial agent) [2]: 1.5
- SA Rating (0-4) [2]: 4
- Air entrainment [3, 5]: 3.6
- Air entrainment ([3]; 30:70 fly ash B1 (LOI 5.01%):cement mortar, 0.005 wt % Air 40 +0.1 wt % EGPE): 9.3
- Air entrainment [3, 6]: 5.4
- Air entrainment [3, 7]: 4.7
- Air entrainment ([3]; 30:70 fly ash C1 (LOI 0.70%):cement mortar, 0.005 wt % Air 40 +0.1 wt % EGPE): 12.6
- Air entrainment [3, 8]: 6.6
- Air entrainment [3, 9]: 6.9
- Air entrainment ([3]; 30:70 fly ash C2 (LOI 3.04%):cement mortar, 0.005 wt % Air 40 +0.1 wt % EGPE): 12.4
- Air entrainment [3, 10]: 8.8
- Air entrainment [3, 11]: 5.9
- Air entrainment ([3]; 30:70 fly ash C3 (LOI 2.54%):cement mortar, 0.005 wt % Air 40 +0.1 wt % EGPE): 9.8
- Air entrainment [3, 12]: 8.0
- Air entrainment [3, 13]: 14.9
- Air entrainment ([3]; 30:70 fly ash D (LOI […]):cement mortar, 0.005 wt % Air 40 +0.1 wt % EGPE): 13.2
- Air entrainment [3, 14]: 12.8
- Air entrainment [3, 15]: 3.1
- Air entrainment ([3]; 30:70 fly ash H1 (LOI 8.45%):cement mortar, 0.005 wt % Air 40 +0.1 wt % EGPE): 5.7
- Air entrainment [3, 16]: 3.1
- Air entrainment [3, 17]: 5.4
- Air entrainment ([3]; 30:70 fly ash M1 (LOI […]):cement mortar, 0.005 wt % Air 40 +0.1 wt % EGPE): 12.7
- Air entrainment [3, 18]: 8.0
- Air entrainment [3, 19]: 2.8
- Air entrainment ([3]; 30:70 fly ash M2 (LOI 8.78%):cement mortar, 0.005 wt % Air 40 +0.1 wt % EGPE): 6.7
- Air entrainment [3, 20]: 4.9
- Air entrainment [3, 21]: 7.6
- Air entrainment ([3]; 30:70 fly ash M3 (LOI 3.15%):cement mortar, 0.005 wt % Air 40 +0.1 wt % EGPE): 18.3
- Air entrainment [3, 22]: 10.2
- Air entrainment [3, 23]: 13.5
- Air entrainment ([3]; 30:70 fly ash R (LOI 0.17%):cement mortar, 0.005 wt % Air 40 +0.1 wt % EGPE): 15.2
- Air entrainment [3, 24]: 13.5
- Air entrainment [3, 25]: 14.0
- Air entrainment ([3]; PCA cement mortar, no fly ash, 0.004 wt % Air 40 +0.1 wt % EGPE): 16.2
- Air entrainment [3, 26]: 14.9
- decrease of variability (RSD values) [3]: approximately 50%
- Average of air entrained [3, 27]: 6.8%
- Average of air entrained ([3]; over the fly ash mortars of Table 13, 0.005 wt % Air 40 +0.1 wt % EGPE): 12%
- Average of air entrained [3, 28]: 8.1%
- Air ([1]; 25% B1 fly ash (LOI 1.9%):PCA concrete, Air 40 0.003 % CM + EGPE 0.100 % CM): 5.1%
- Air ([1]; 25% B1 fly ash (LOI 1.9%):PCA concrete, Air 40 0.006 % CM + EGPE 0.100 % CM): 6.2%
- Air ([1]; 25% B1 fly ash (LOI 1.9%):PCA concrete, Air 40 0.009 % CM + EGPE 0.100 % CM): 7.4%
- Air ([1]; Air 30 0.006 % CM, EGPE 0.100 % CM added during batching, PCA cement, B1 fly ash 25 %, LOI […]): 11.4%
- Air ([1]; Air 30 0.006 % CM, EGPE 0.100 % CM premixed with fly ash, PCA cement, B1 fly ash 25 %, LOI […]): 10.0%
- Air ([1]; Air 40 0.003 % CM, EGPE 0.100 % CM added during batching, PCA cement, B1 fly ash 25 %, LOI […]): 2.7%
- Air ([1]; Air 40 0.003 % CM, EGPE 0.100 % CM premixed with fly ash, PCA cement, B1 fly ash 25 %, LOI […]): 2.9%
- Air ([1]; Air 40 0.008 % CM, EGPE 0.100 % CM added during batching, PCA cement, B1 fly ash 25 %, LOI […]): 4.9%
- Air ([1]; Air 40 0.008 % CM, EGPE 0.100 % CM premixed with fly ash, PCA cement, B1 fly ash 25 %, LOI […]): 4.7%
- % air, levelling-off ([1]; B1 fly ash ([…] LOI):PCA concrete, Air 40 0.003 wt %, increasing dosages of EGPE): 6-8 vol %
- % air ([1]; B1 fly ash ([…] LOI):PCA concrete, EGPE 0.1 wt % with increasing Air 40 dosage): approx 5%
- Air ([1]; PCA cement concrete, no fly ash, Air 40 0.003 % CM + EGPE 0.050 % CM): 6.5%
- Air ([1]; PCA cement concrete, no fly ash, Air 40 0.003 % CM + EGPE 0.100 % CM): 6.5%
- Air ([1]; PCA cement concrete, no fly ash, Air 40 0.003 % CM + EGPE 0.200 % CM): 6.2%
- Air ([1]; PCA cement concrete, no fly ash, Air 40 0.006 % CM + EGPE 0.050 % CM): 8.1%
- Air ([1]; PCA cement concrete, no fly ash, Air 40 0.006 % CM + EGPE 0.100 % CM): 8.3%
- Air ([1]; PCA cement concrete, no fly ash, Air 40 0.006 % CM + EGPE 0.200 % CM): 8.0%
- Air ([1]; PCC cement concrete, no fly ash, no Air 40, EGPE alone 0.010 % CM): 1.9%
- Air ([1]; PCC cement concrete, no fly ash, no Air 40, EGPE alone 0.030 % CM): 2.0%
- Air ([1]; PCC cement concrete, no fly ash, no Air 40, EGPE alone 0.050 % CM): 2.0%
- Air ([1]; PCC cement concrete, no fly ash, no Air 40, EGPE alone 0.100 % CM): 2.1%
- increase in air entrained above the control values [1]: about 1%
